# Source: PMC9027111, “Morphing Natural Product Platensimycin via Heck, Sonogashira, and One-Pot Sonogashira/Cycloaddition Reactions to Produce Antibiotics with In Vivo Activity” (Antibiotics, 2022)
# Like-named read-outs stand apart in the source and are kept apart here.
# Legend:
# MSSA 1 = experiment: MIC determination (LB agar dilution), clinical MSSA strain 1; format: cell-based; details: Staphylococcus aureus, at least two replicates
# Description: (§1) All of the tested compounds were prepared to different concentrations with methanol, and 150 μL of the respective methanol solution was used to mix with 15 mL LB (Luria–Bertani) medium with 1% agar in each Petri dish. Linezolid and PTM were used as reference compounds for comparison. In vitro bioassay for compounds was carried out using clinical strains of S. aureus, E. coli, and Klebsilla pneumoniae. The bacteria were cultivated in LB medium and incubated for 16 h at 37 °C, 250 rpm. The resulting bacteria were diluted to approximate 0.25 at OD600, which were further diluted 10_4-fold. The diluted bacteria (2 μL) were added to Petri dish containing the respective compounds. The resulting Petri dishes were incubated for 16 h at 37 °C. The determination of MIC is the concentration of Petri dishes with no visible growth of bacteria.
# S. aureus ATCC 29213 = experiment: MIC determination (LB agar dilution), S. aureus ATCC 29213; format: cell-based; details: Staphylococcus aureus, ATCC29213, at least two replicates
# Description: as §1
# [1] = Plasma protein binding by equilibrium dialysis; format: in vitro ADME; details: 37 °C; for Plasma Protein Binding Bound %: 5 μM, 6 h; for fraction unbound at 6 h, 5 μM: plasma, read-out: Plasma Protein Binding Free %
# Description: Equilibrium dialysis was used to determine the plasma protein binding. All of the test compounds were treated in triplicate by RED Rapid Equilibrium Dialysis Device (Thermo Scientific, Waltham, MA, USA). In brief, the initial compound concentration (5 μM) in the plasma chamber was first set, followed by the addition of phosphate buffered saline (PBS) to the receiver chamber. The Equilibrium Dialysis Device was allowed to shake for 6 h in a 37 °C incubator. Then, 25 μL solution was sampled from the plasma and PBS chambers, respectively, and they were diluted with either blank PBS or plasma to achieve a 1:1 ratio of plasma: PBS for all samples. The concentrations of the tested compounds in the plasma and PBS chambers were determined by LC–MS/MS. The fraction bound was calculated as ([plasma]—[PBS])/[plasma].
# MSSA 2 = experiment: MIC determination (LB agar dilution), clinical MSSA strain 2; format: cell-based; details: Staphylococcus aureus, at least two replicates
# Description: as §1
# MRSA 4 = experiment: MIC determination (LB agar dilution), clinical MRSA strain 4; format: cell-based; details: Staphylococcus aureus, at least two replicates
# Description: as §1
# MRSA 3 = experiment: MIC determination (LB agar dilution), clinical MRSA strain 3; format: cell-based; details: Staphylococcus aureus, at least two replicates
# Description: as §1
# [2] = Metabolic stability assay in pooled human liver microsomes; format: in vitro ADME; details: pH 7.4, 37 °C, NADPH, read-out: Half-Life in Human Hepatic Microsomes
# Description: Each compound was incubated in duplicate with pooled human liver microsomes at 37 °C. The tested compounds were pre-incubated with pooled human liver microsomes in phosphate buffer (pH 7.4) for 5 min in a shaking water bath at 37 °C. The reaction was initiated by adding a NADPH-generating system and incubated for 0, 15, 30, 45, and 60 min. The reaction was stopped by transferring the incubation mixture to CH3CN/MeOH. Samples were then mixed and centrifuged. Supernatants were used for HPLC–MS/MS analysis. Data were calculated as percent parent compounds remaining by assuming zero-minute time point peak area ratio (analyte/IS) as 100% and dividing remaining time point peak area ratios by the zero-minute time point peak area ratio. Data were subjected to fit a first-order decay model to calculate both the slope and half-life.
# [3] = design: method as in PMID 31244223; details: pooled human liver microsomes; previously reported ref 14; cited from earlier work
# MRSA [4] = format: in vivo; details: for survival of infected mice: tracked 7 days; for survival of infected mice / mice died within 24 h: n = 5; for survival rate of the infected mice: 7 days
# [5] = design: method as in PMID 31244223; details: previously reported ref 14; cited from earlier work
# MRSA [6] = experiment: Mouse skin infection with MRSA; format: in vivo, BABL/c mice; details: for load of S. aureus on treated skin: n = 5/group; for healing of the infected skin: topical twice a day for 7 days, observation and H&E staining
# Description: Mouse MRSA skin infection study was performed as described before. Female BABL/c mice (20–22 g, 7-weeks old) were anesthetized by intraperitoneal injection of 4% chloral hydrate (200 μL), and the hair of mice back surface was removed and washed with povidone iodine–propanol solution. A gauze (15 × 15 mm) was preheated in boiling water (90 °C) for 10 min, and then placed on the back of each mouse for 40 s to generate the burns. Next, the burn was bound with sterile gauze and infected with 1 × 10^8 colony-forming units (CFU) of MRSA. An open wound was witnessed at the burns after 48 h post infection. The infected mice were then divided into three groups (5 per group). A4 (200 μg) was formulated into 2% ointment consisting of 1.4% carbomer, 1.4% triethanolamine, 14% propanediol, 14% glycerinum, and 1% azone. Mupirocin (2% w/w) were used as the positive control, while vehicle used as negative control. All mice were treated twice a day for 7 days. Mice were euthanized after 24 h of the last treatment, and the wound area was slightly swabbed with 70% ethanol. Wound area (1 cm^2) was excised, homogenized, and plated onto TSB agar plates to count viable bacteria. Other skin biopsy specimens removed from the wounds were stored at 4% paraformaldehyde solution to be used for hematoxylin and eosin (HE) staining.
# [7] = Stability of A4 in LB agar; format: physicochemical; details: 8 μg mL−1 in LB agar, 37 °C, 16 h, UPLC
# Description: Figure S44. Analysis of the stability of A4 from LB agar. Compound A4 (0.1 mg mL−1)
# were diluted in 5 mL of LB agar (1.5% v/v) to 8 μg mL−1, and the LB agar plates were
# then incubated at 37 °C for 16 h. The LB agar containing A4 was extracted by DCM (3 ×
# 10 mL), dried with anhydrous Na2SO4 and concentrated in vacuum. The resulting
# extracts were analysed by Ultra-Performance Liquid Chromatography.
# (1 picture or pasted object on this page, not shown here)
# [8] = 10 mg/kg intraperitoneal at 1 h and 5 h after infection
# [9] = 2 mg topical twice a day for 7 days
# [10] = 50 mg/kg intraperitoneal at 1 h and 5 h after infection
SMILES,MIC (MSSA 1) [µg/mL],MIC (S. aureus ATCC 29213) [µg/mL],Plasma Protein Binding Bound % [1] [%],"fraction unbound at 6 h, 5 μM [1]",MIC (MSSA 2) [µg/mL],MIC (MRSA 4) [µg/mL],MIC (MRSA 3) [µg/mL],half-life [2] [min],also measured
CCCCCCCCCCCCCCCCCCOC(=O)C=CC1=CC23CC4CC(OC4(C)C2)C3C(C)(CCC(=O)Nc2c(O)ccc(C(=O)O)c2O)C1=O (centres unmarked) [A5],> 64,> 64,99.2,0.008,> 64,> 64,> 64,76,
"CC12C[C@@]34C=CC(=O)[C@@](C)(CCC(=O)Nc5c(O)ccc(C(=O)O)c5O)C3[C@H](CC1C4)O2 (some centres unmarked) [PTM, Platensimycin]",1,1,,,1,1,1,,Half-Life in Human Hepatic Microsomes [3]: 51 min; survival of infected mice (MRSA [4]; [8]): died after MRSA infection within 24 h; Plasma Protein Binding Free % [5]: 34%
CC12CC34C=C(C=CC(=O)N5CCOCC5)C(=O)C(C)(CCC(=O)Nc5c(O)ccc(C(=O)O)c5O)C3C(CC1C4)O2 (centres unmarked) [A10],16,16,77,0.23,16,16,16,> 120,
CC(=O)C1=C(C)OC(Cc2ccc(F)cc2)=C2C(=O)C(C)(CCC(=O)Nc3c(O)ccc(C(=O)O)c3O)C3C4CC5CC3(CC5(C)O4)C12 (centres unmarked) [C6],32,32,99.6,0.004,32,32,32,17,
"CC12CC34C=C(c5ccc6ccc7cccc8ccc5c6c78)C(=O)C(C)(CCC(=O)Nc5c(O)ccc(C(=O)O)c5O)C3C(CC1C4)O2 (centres unmarked) [1b, 6-pyrenyl PTM, reference compound]",,,99.9,0.001,,,,73,
CC12CC34C=C(C#Cc5cccc(F)c5)C(=O)C(C)(CCC(=O)Nc5c(O)ccc(C(=O)O)c5O)C3C(CC1C4)O2 (centres unmarked) [B8],1,1,99.4,0.006,1,1,1,96,mice died within 24 h (MRSA [4]; [8]): 40%
"C/C(=C\C(=O)OCCCCCCCCC(=O)O)C[C@@H]1OC[C@H](C[C@@H]2O[C@H]2[C@@H](C)[C@H](C)O)[C@@H](O)[C@H]1O [mupirocin, reference compound]",,,,,,,,,load of S. aureus on treated skin (MRSA [6]; [9]): (6.5 ± 2.4) × 10^5 CFU/g; healing of the infected skin (MRSA [6]): showed the healing of the skin
CC(C)(C)OC(=O)C=CC1=CC23CC4CC(OC4(C)C2)C3C(C)(CCC(=O)Nc2c(O)ccc(C(=O)O)c2O)C1=O (centres unmarked) [A4],1,1,98.3,0.017,1,1,1,26,stability in LB agar [7]: relatively stable; survival rate of the infected mice (MRSA [4]; 5 mg/kg intraperitoneal at 1 h and 5 h after infection): 60%; survival of infected mice (MRSA [4]; [8]): 60%; survival rate of the infected mice (MRSA [4]; 20 mg/kg intraperitoneal at 1 h and 5 h after infection): 80%; survival rate of the infected mice (MRSA [4]; 30 mg/kg intraperitoneal at 1 h and 5 h after infection): 60%; survival of infected mice (MRSA [4]; [10]): 20%; survival of infected mice after oral administration (MRSA [4]; 30 and 50 mg/kg by oral gavage): most of the treated mice survived within 48 h; reduction of MRSA on the skin compared to untreated mice (MRSA [6]; [9]): ~ 790 fold; load of S. aureus on treated skin (MRSA [6]; [9]): (1.0 ± 0.3) × 10^6 CFU/g; healing of the infected skin (MRSA [6]): showed the healing of the skin
"CN[C@H](CC(C)C)C(=O)N[C@H]1C(=O)N[C@@H](CC(N)=O)C(=O)N[C@H]2C(=O)N[C@H]3C(=O)N[C@H](C(=O)N[C@H](C(=O)O)c4cc(O)cc(O)c4-c4cc3ccc4O)[C@H](O)c3ccc(c(Cl)c3)Oc3cc2cc(c3O[C@@H]2O[C@H](CO)[C@@H](O)[C@H](O)[C@H]2O[C@H]2C[C@](C)(N)[C@H](O)[C@H](C)O2)Oc2ccc(cc2Cl)[C@H]1O [vancomycin, reference compound]",,,,,,,,,survival of infected mice (MRSA [4]; [10]): 100%
"CCSC1CC(=O)C(C)(CCC(=O)Nc2c(O)ccc(C(=O)O)c2O)C2C3CC4CC12CC4(C)O3 (centres unmarked) [1a, PTM-2t]",,,,,,,,,Half-Life in Human Hepatic Microsomes [3]: 22 min; Plasma Protein Binding Bound % [5]: 35%; Plasma Protein Binding Free % [5]: 65%
"CC12CC34C=C(I)C(=O)C(C)(CCC(=O)Nc5c(O)ccc(C(=O)O)c5O)C3C(CC1C4)O2 (centres unmarked) [compound 4, 6-iodo PTM]",1,1,87,0.13,1,1,1,58,mice died within 24 h (MRSA [4]; [8]): 40%
